Test results reported in the supplement of paper PMC10307832.

What was measured:
Assay in all cases: relative viability (nuclei count vs DMSO), 5 days (fraction); higher = more cells survive
NPK76-II-72-1 + OSI-027 = compound: CC1CC(=O)N(C2=CN=C(N=C2N1C3CCCC3)NC4=C(C=C(C=C4)C(=O)NC5CCN(CC5)C)OC)C [NPK76-II-72-1] + COc1cccc2cc(-c3nc([C@H]4CC[C@H](C(=O)O)CC4)n4ncnc(N)c34)[nH]c12 [OSI-027] (partner 0.5 µM)
Outline: (§1)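 Values are medians from duplicate plates. Each reflects relative viability, defined as the nuclei count of treated wells over that of vehicle wells. Lung cancer cell lines in 1536-well plates were pin-tool dosed one day after seeding with one drug alone or with a fixed anchor-drug dose plus five library-drug doses (not always all listed) in √10 steps, then fixed, stained and imaged at 4× after 5 days.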

NPK76-II-72-1 + AZD7762 = compound: CC1CC(=O)N(C2=CN=C(N=C2N1C3CCCC3)NC4=C(C=C(C=C4)C(=O)NC5CCN(CC5)C)OC)C [NPK76-II-72-1] + NC(=O)Nc1cc(-c2cccc(F)c2)sc1C(=O)N[C@H]1CCCNC1 [AZD7762] (partner 0.2 µM)
Outline: as §1

[1] = compound: CC1CC(=O)N(C2=CN=C(N=C2N1C3CCCC3)NC4=C(C=C(C=C4)C(=O)NC5CCN(CC5)C)OC)C [NPK76-II-72-1] + Cc1cc(Nc2cc(N3CCN(C)CC3)nc(Sc3ccc(NC(=O)C4CC4)cc3)n2)n[nH]1 [Tozasertib] (partner 0.1 µM)
Outline: as §1

BI-2536 + Alpelisib = compound: CC[C@@H]1C(=O)N(C)c2cnc(Nc3ccc(C(=O)NC4CCN(C)CC4)cc3OC)nc2N1C1CCCC1 [BI-2536] + Cc1nc(NC(=O)N2CCC[C@H]2C(N)=O)sc1-c1ccnc(C(C)(C)C(F)(F)F)c1 [Alpelisib] (partner 2 µM)
Outline: as §1

Cell Line | relative viability (NPK76-II-72-1 + OSI-027; first compound 0.01 µM) | relative viability (NPK76-II-72-1 + OSI-027; first compound 0.03162 µM) | relative viability (NPK76-II-72-1 + OSI-027; first compound 0.1 µM) | relative viability (NPK76-II-72-1 + OSI-027; first compound 0.3162 µM) | relative viability (NPK76-II-72-1 + OSI-027; first compound 1 µM) | relative viability (NPK76-II-72-1 + AZD7762; first compound 0.01 µM) | relative viability (NPK76-II-72-1 + AZD7762; first compound 0.03162 µM) | relative viability (NPK76-II-72-1 + AZD7762; first compound 0.1 µM) | relative viability (NPK76-II-72-1 + AZD7762; first compound 0.3162 µM) | relative viability (NPK76-II-72-1 + AZD7762; first compound 1 µM) | relative viability ([1]; first compound 0.01 µM) | relative viability ([1]; first compound 0.03162 µM) | relative viability ([1]; first compound 0.1 µM) | relative viability ([1]; first compound 0.3162 µM) | relative viability ([1]; first compound 1 µM) | relative viability (BI-2536 + Alpelisib; first compound 0.01 µM) | relative viability (BI-2536 + Alpelisib; first compound 0.03162 µM) | relative viability (BI-2536 + Alpelisib; first compound 0.1 µM) | relative viability (BI-2536 + Alpelisib; first compound 0.3162 µM) | relative viability (BI-2536 + Alpelisib; first compound 1 µM)
NCI-H2342 | 0.632 | 0.572 | 0.632 | 0.435 | 0.58 | 0.501 | 0.435 | 0.673 | 0.328 | 0.462 | 0.621 | 0.467 | 0.498 | 0.437 | 0.537 |  |  |  |  | 
SK-MES-1 | 0.585 | 0.617 | 0.583 | 0.661 | 0.742 |  |  |  |  |  | 0.938 | 0.999 | 0.876 | 0.937 | 0.922 | 0.869 | 0.957 | 0.786 | 0.147 | 0.186
HCC-366 | 0.939 | 0.998 | 1.08 | 0.863 | 0.888 | 0.233 | 0.388 | 0.375 | 0.246 | 0.468 | 0.204 | 0.156 | 0.111 | 0.118 | 0.169 | 0.469 | 0.344 | 0.273 | 0.0093 | 0.0141
201T | 0.65 | 0.677 | 0.703 | 0.673 | 0.474 | 0.579 | 0.759 | 0.62 | 0.618 | 0.619 | 0.884 | 0.948 | 0.984 | 0.939 | 0.976 | 0.997 | 1.03 | 0.973 | 0.441 | 0.285
HCC-827 | 0.75 | 0.788 | 0.835 | 0.597 | 0.801 | 0.2 | 0.203 | 0.243 | 0.129 | 0.259 | 0.399 | 0.416 | 0.417 | 0.409 | 0.476 | 0.934 | 1.03 | 0.867 | 0.282 | 0.243
NCI-H647 | 0.618 | 0.626 | 0.526 | 0.578 | 0.627 | 0.4 | 0.476 | 0.578 | 0.434 | 0.379 | 0.315 | 0.283 | 0.423 | 0.257 | 0.325 | 1.19 | 0.57 | 0.571 | 0.0897 | 0.091
NCI-H2023 | 0.373 | 0.426 | 0.412 | 0.415 | 0.454 |  |  |  |  |  | 0.326 | 0.366 | 0.403 | 0.308 | 0.44 | 0.57 | 0.577 | 0.309 | 0.0843 | 0.0719
NCI-H520 | 0.358 | 0.265 | 0.238 | 0.257 | 0.305 |  |  |  |  |  | 0.36 | 0.437 | 0.429 | 0.423 | 0.487 | 0.833 | 0.828 | 0.315 | 0.201 | 0.154
RERF-LC-KJ | 0.63 | 0.636 | 0.651 | 0.525 | 0.628 | 0.938 | 0.931 | 0.987 | 0.763 | 1.15 | 0.589 | 0.51 | 0.573 | 0.548 | 0.513 | 0.697 | 0.724 | 0.675 | 0.195 | 0.208
A-427 | 0.497 | 0.526 | 0.452 | 0.376 | 0.434 | 0.682 | 0.673 | 0.945 | 0.796 | 0.814 | 0.222 | 0.23 | 0.207 | 0.192 | 0.252 | 1.11 | 1.04 | 1.03 | 0.381 | 0.136
NCI-H441 | 0.596 | 0.73 | 0.561 | 0.579 | 0.788 | 1.12 | 1.07 | 1.08 | 1.04 | 1.07 | 0.825 | 0.659 | 0.635 | 0.619 | 0.721 | 0.613 | 0.235 | 0.148 | 0.168 | 0.178
NCI-H1703 |  |  |  |  |  | 0.144 | 0.115 | 0.174 |  | 0.0937 |  |  |  |  |  | 0.347 | 0.247 | 0.279 | 0.0951 | 0.123
NCI-H1792 | 0.701 |  | 0.734 | 0.753 | 0.802 |  | 0.702 | 0.848 | 0.686 | 0.732 |  |  |  |  |  | 0.786 | 0.804 | 0.643 | 0.34 | 0.134
Calu-6 |  |  |  |  |  |  |  |  |  |  |  |  |  |  |  | 0.985 | 0.682 | 0.285 | 0.0989 | 0.126
SK-LU-1 | 0.321 | 0.355 | 0.368 | 0.361 | 0.406 |  |  |  |  |  | 0.341 | 0.351 | 0.361 | 0.305 | 0.38 | 1.03 | 0.507 | 0.317 | 0.28 | 0.244
PC-3 [JPC-3] | 0.664 | 0.742 | 0.78 | 0.711 | 0.889 | 0.766 |  | 0.738 | 0.917 | 0.751 | 0.882 | 0.861 | 0.81 | 0.904 | 0.93 | 1.13 | 0.978 | 0.871 | 0.264 | 0.24
EMC-BAC-2 | 0.372 | 0.351 | 0.391 | 0.361 | 0.415 | 1.02 | 1.07 | 1.02 | 1.09 | 1.17 | 0.298 | 0.339 | 0.296 | 0.294 | 0.316 | 0.741 | 0.886 | 0.604 | 0.161 | 0.12
LK-2 | 0.157 | 0.227 | 0.206 | 0.201 | 0.233 | 0.367 | 0.42 | 0.439 | 0.323 | 0.379 | 0.159 | 0.195 | 0.183 | 0.187 | 0.213 | 1.14 | 0.318 | 0.374 | 0.222 | 0.282
